Structures are written as SMILES.

These results are taken from patent US20080312241A1, “Cicletanine and PKC inhibitors in the treatment of pulmonary and cardiac disorders” (Gilead Sciences, Inc., priority 2007, published 2008).

Series [1] has as its system nitric oxide in vascular tissue. Description: Nitric oxide levels in vascular tissue.
Series [2] has as its system patient with idiopathic pulmonary arterial hypertension. Kind of series: Human case (Example 1): oral once daily cicletanine in a patient with idiopathic pulmonary arterial hypertension (Class I). The class given is in vivo. Conditions: for 6-minute walking distance: less than 30 meters immediately prior to initiation; for levels of N-terminal pro-B-type natriuretic peptide: 4409 immediately prior to therapy. On the procedure: A successful clinical trial of one of the embodiments comprised use of racemic cicletanine with the dosage initiated at 50 mg daily and titrated as tolerated to 150 mg daily in a patient with Class I Pulmonary Hypertension.
A patient with idiopathic pulmonary arterial hypertension, despite having been for some time on high doses of all three classes of approved pulmonary hypertension drugs (endothelin receptor antagonist, prostacyclin, and PDE5 inhibitor), was in heart failure and deteriorating rapidly. The patient had finally been stabilized in the intensive care unit with continuously inhaled nitric oxide. Cicletanine therapy was inititiated—oral once daily, titrating from 50 mg to 150 mg/day over three days—day 1 at 50 mg, day 2 at 100 mg, day 3 and thereafter at 150 mg. Within three days from initiation of cicletanine therapy, the patient was weaned off nitric oxide and released from the intensive care unit; they were home within 5 days of initiation of cicletanine treatment. The patient has been on the cicletanine therapy for four and a half months.
The patient has manifested a significant improvement in 6-minute walking distance, which was less than 30 meters immediately prior to cicletanine initiation, and was over 200 meters after one month of cicletanine therapy and was over 400 meters from the second month of cicletanine therapy onward.
Immediately prior to cicletanine therapy the marker was at 4409; within a few days of cicletanine therapy biomarker levels had fallen to less than 2000, and have stayed near 2000 for approximately four months.
The patient, formerly bedridden, is now able to perform housework and take regular exercise.

Series [3] concerns WHO class II pulmonary hypertension patients. Description: Oral cicletanine 50 mg daily in WHO class II pulmonary hypertension patients. The format is in vivo, human. On the procedure:
When dosed orally once daily at 50 mg daily, improvements in functional status as measured by improved 12 minute walking distance were observed.
Another embodiment comprises the use of 50 mg oral daily doses of racemic cicletanine for treatment of Class II Pulmonary Hypertension, resulting in improved walking distance values.

For series [4], the system named is Class III Pulmonary Hypertension. Description: Oral cicletanine 50 mg daily in Class III pulmonary hypertension (associated with left-sided heart failure). The format is in vivo, human. On the procedure:
Yet another embodiment comprises the use of 50 mg oral daily doses of racemic cicletanine for treatment of Class III Pulmonary Hypertension, resulting in improved NYHA functional status.

Series [5] has as its system human subject with heart failure. Kind of series: Oral cicletanine 150 mg daily in a human subject with heart failure. The format is in vivo. To be noted: oral 150 mg daily. On the procedure:
Natriuretic peptide level, a marker of heart failure is improved by oral administration of 150 mg of Cicletanine daily to a human subject with heart failure.

Series [6] in a line: Tolerance and systemic blood pressure effects of cicletanine in patients. The class given is in vivo, human. On the procedure: We have unexpectedly found good tolerance of Cicletanine in some patient populations at doses up to 400 mg. […] This is particularly effective by use of means to reduce or modulate the magnitude of the kaliuretic, natriuretic and diuretic effects of Cicletanine. As part of aspects of the present invention, and as described below, we have also invented several means of accomplishing this objective.
In accordance of the other embodiments of the present invention, an oral therapeutic formulation is disclosed wherein sufficient cicletanine is contained to improve pulmonary hemodynamics without excessive lowering of systemic blood pressure. Excessive reduction of systemic blood pressure has been a limiting side effect in many agents potentially useful for treatment of pulmonary hypertension. […] Use of appropriate delivery or other mechanisms to optimize blood levels of individual isomers will allow even higher dosing without adverse impacts on systemic blood pressures.
In accordance with some embodiments of the present invention, an oral formulation is disclosed, comprising a therapeutically effective amount of cicletanine alone or in combination with a second agent such that the overall formulation improves pulmonary hemodynamics without inappropriately lowering systemic blood pressure. […]

[7] abbreviates: 50 mg daily titrated to 150 mg daily, patient with Class I Pulmonary Hypertension.

For `Cc1ncc2c(c1O)COC2c1ccc(Cl)cc1` (single isomer, unassigned; (-)) [(−) cicletanine], in series [1] (compared with (+) cicletanine), the “nitric oxide enhancing effect, (−) versus (+) cicletanine” value is on record as “more prominent”.

With `Cc1ncc2c(c1O)COC2c1ccc(Cl)cc1` (racemic) [cicletanine], the 6-minute walking distance result is recorded as “over 200 meters” in series [2] (after one month of cicletanine therapy (150 mg/day oral)) and “over 400 meters” in series [2] (from the second month of cicletanine therapy onward). Further, the “levels of N-terminal pro-B-type natriuretic peptide” value in series [2] (for approximately four months of therapy) was about 2000; in series [2] (within a few days of cicletanine therapy), “less than 2000”. Also, the quality of life entry in series [2] (formerly bedridden, now able to perform housework and take regular exercise) was “improved significantly”. Besides, the “time from initiation of treatment until home” value in series [2] (titrating from 50 mg to 150 mg/day) is listed as at most 5 days. Also, the “time from initiation of therapy until weaned off nitric oxide and released from the intensive care unit” value in series [2] (titrating from 50 mg to 150 mg/day over three days) is reported as “three”. Moreover, the “12 minute walking distance (functional status)” value in series [3] (oral once daily 50 mg, WHO class II patients) is given as “improved”. The “hemodynamic and clinical change from baseline” value in series [4] (pulmonary hypertension associated with left-sided heart failure) was “favorable, long-term hemodynamic and clinical improvements”. Also, the “Natriuretic peptide level (marker of heart failure)” value in series [5] is “improved”. The systemic blood pressure entry in series [6] (human, in vivo) is recorded as “tends not to lower”. Further, the “doses with good tolerance” value in series [6] (some patient populations) is listed as “up to 400 mg”. For the same compound, the “tachyphylaxis to its own nitric oxide effects” value in series [1] is listed as “avoids tachyphylaxis”. Moreover, the “levels of nitric oxide in vascular tissue” value in series [1] (persistent across concentrations corresponding to human doses from 1 mg daily to several thousand milligrams daily) was “increased levels”.

For the compound `Cc1ncc2c(c1O)COC2c1ccc(Cl)cc1` (racemic) [racemic cicletanine], in series [2] (setting [7]), the “increase in walking distance” value is “more than 12 fold” and the “natriuretic peptide serum levels” value was “substantial reductions”. For the same compound, in series [3] (50 mg oral daily doses, Class II Pulmonary Hypertension), the walking distance values entry was “improved”. Besides, the NYHA functional status entry in series [4] (50 mg oral daily doses, Class III Pulmonary Hypertension) is given as “improved”.
